Test results published in patent US20230011269A1, “PHARMACEUTICAL COMPOSITION COMPRISING A POTENT INHIBITOR OF URAT1” (Ardea Biosciences, Inc., priority 2015, published 2023).
Values after ≈ are worked out from the molar mass of the structure shown. Where two headings read alike, the source gives them in different places.

Experiments:
[1] = aqueous equilibrium solubility at 37° C.; format: physicochemical; conditions: aqueous media, thermodynamic from solid
Source text: The solubility of 2-((3-(4-cyanonaphthalen-1-yl)pyridine-4-yl)thio)-2-methylpropanoic acid in aqueous media is highly dependent upon pH.

[2] = Phase 1 single dose study, immediate release formulations: plasma pharmacokinetics; format: in vivo, human; conditions: for AUC(0-t): read-out: AUC0-24
Source text: (§1) A phase 1, randomized, double-blind, placebo-controlled study in healthy adult male volunteers evaluated single rising doses and the preliminary food effect for 2-((3-(4-cyanonaphthalen-1-yl)pyridine-4-yl)thio)-2-methylpropanoic acid at 6 dose groups with 8 subjects per group. […] Subjects in each dose group were randomized to receive a single dose of either 2-((3-(4-cyanonaphthalen-1-yl)pyridine-4-yl)thio)-2-methylpropanoic acid (6 subjects) or placebo (2 subjects). 2-((3-(4-cyanonaphthalen-1-yl)pyridine-4-yl)thio)-2-methylpropanoic acid was supplied as 1 mg oral solution, 2 mg oral solution, 5 mg tablets, or 20 mg tablets (depending on dose level).
Segment A evaluated single rising doses of 2 mg, 5 mg, 20 mg and 40 mg and the preliminary food effect of 2-((3-(4-cyanonaphthalen-1-yl)pyridine-4-yl)thio)-2-methylpropanoic acid at the 5 mg and 20 mg doses followed by multiple ascending doses of 1 mg, 5 mg and 10 mg qd in Segment B.
The oral solution was prepared by the clinical pharmacist in bulk within 24 hours of administration. The oral solution of 2-((3-(4-cyanonaphthalen-1-yl)pyridine-4-yl)thio)-2-methylpropanoic acid (0.033 mg/mL concentration) was prepared as a mixture of the appropriate amount of 2-((3-(4-cyanonaphthalen-1-yl)pyridine-4-yl)thio)-2-methylpropanoic acid powder, anhydrous dibasic sodium phosphate, and sterile water for irrigation; placebo oral solution was prepared as a vehicle using anhydrous dibasic sodium phosphate and sterile water for irrigation. […] Plasma samples were collected at the following time-points in relation to dosing on Day 1: pre-dose (within 30 minutes before dosing) and at 0.25, 0.5, 0.75, 1, 1.5, 2, 2.5, 3, 4, 5, 6, 8, 10, 12, 24, 30, 36, 48, 54, 60, and 72 hours post-dose, and were analysed for 2-((3-(4-cyanonaphthalen-1-yl)pyridine-4-yl)thio)-2-methylpropanoic acid content.

[3] = tested on: urine urate excretion; assay: Phase 1 single dose study, immediate release formulations: urine urate excretion; format: in vivo, human; conditions: 5 mg/Fasted
Source text: as §1
The mean plasma concentration-time profiles for the IR formulations under fed and fasted conditions are depicted in FIGS. 3a and 3b. Absorption of 2-((3-(4-cyanonaphthalen-1-yl)pyridine-4-yl)thio)-2-methylpropanoic acid following a single oral dose under fasted conditions was rapid. […] When 2-((3-(4-cyanonaphthalen-1-yl)pyridine-4-yl)thio)-2-methylpropanoic acid was administered with food, slightly slower absorption and lower exposure were observed. […] Important pharmacodynamic parameters related to the serum Uric Acid lowering effects are shown in the following two tables: […]

[4] = 2 mg single dose, Fasted, oral solution, Group 5, N = 6, Geomean
[5] = 5 mg single dose, Fasted, 1 × 5 mg tablet, Group 4, N = 6, Geomean
[6] = 5 mg single dose, Fed, 1 × 5 mg tablet, Group 6, N = 6, Geomean
[7] = 20 mg single dose, Fasted, 1 × 20 mg tablet, Group 1, N = 6, Geomean
[8] = 20 mg single dose, Fed, 1 × 20 mg tablet, Group 3, N = 6, Geomean
[9] = 40 mg single dose, Fasted, 2 × 20 mg tablet, Group 2, N = 6, Geomean
[10] = mg of urate per urine collection period

SMILES: CC(C)(Sc1ccncc1-c1ccc(C#N)c2ccccc12)C(=O)O [2-((3-(4-cyanonaphthalen-1-yl)pyridine-4-yl)thio)-2-methylpropanoic acid]
- solubility at 24 h ([1]; pH 1, simulated gastric fluid, 0.1N HCl, pH initial 1.1, pH (24 h) 1.0, read-out: Solubility after 24 hours): 1480 µg/mL (≈ 4250 µM)
- solubility at 48 h ([1]; pH 1.1, simulated gastric fluid, 0.1N HCl, pH initial 1.1, pH (48 h) 1.1, read-out: Solubility after 48 hours): 1240 µg/mL (≈ 3550 µM)
- solubility at 24 h ([1]; pH 1.6, simulated gastric fluid, SGF pH 1.6, pH initial 1.6, pH (24 h) 1.4, read-out: Solubility after 24 hours): 415 µg/mL (≈ 1190 µM)
- solubility at 48 h ([1]; pH 1.6, simulated gastric fluid, SGF pH 1.6, pH initial 1.6, pH (48 h) 1.4, read-out: Solubility after 48 hours): 398 µg/mL (≈ 1140 µM)
- solubility at 24 h ([1]; pH 3, aqueous buffer, Citrate pH 3.0, pH initial 3.0, pH (24 h) 2.8, read-out: Solubility after 24 hours): 66 µg/mL (≈ 189 µM)
- solubility at 48 h ([1]; pH 3, aqueous buffer, Citrate pH 3.0, pH initial 3.0, pH (48 h) 2.8, read-out: Solubility after 48 hours): 65 µg/mL (≈ 187 µM)
- solubility at 24 h ([1]; pH 4, aqueous buffer, Succinate pH 4.0, pH initial 4.0, pH (24 h) 3.9, read-out: Solubility after 24 hours): 56 µg/mL (≈ 161 µM)
- solubility at 48 h ([1]; pH 4, aqueous buffer, Succinate pH 4.0, pH initial 4.0, pH (48 h) 3.9, read-out: Solubility after 48 hours): 55 µg/mL (≈ 158 µM)
- solubility at 24 h ([1]; pH 4.5, aqueous buffer, Acetate pH 4.5, pH initial 4.6, pH (24 h) 4.5, read-out: Solubility after 24 hours): 70 µg/mL (≈ 201 µM)
- solubility at 48 h ([1]; pH 4.5, aqueous buffer, Acetate pH 4.5, pH initial 4.6, pH (48 h) 4.5, read-out: Solubility after 48 hours): 65 µg/mL (≈ 187 µM)
- solubility at 24 h ([1]; pH 5, aqueous buffer, Citrate pH 5.0, pH initial 5.0, pH (24 h) 5.0, read-out: Solubility after 24 hours): 97 µg/mL (≈ 278 µM)
- solubility at 48 h ([1]; pH 5, aqueous buffer, Citrate pH 5.0, pH initial 5.0, pH (48 h) 4.9, read-out: Solubility after 48 hours): 95 µg/mL (≈ 273 µM)
- solubility at 48 h ([1]; pH 5.3, water, Water, pH initial 6.3, pH (48 h) 5.3, read-out: Solubility after 48 hours): 132 µg/mL (≈ 379 µM)
- solubility at 24 h ([1]; pH 5.4, water, Water, pH initial 6.3, pH (24 h) 5.4, read-out: Solubility after 24 hours): 148 µg/mL (≈ 425 µM)
- solubility at 24 h ([1]; pH 6, aqueous buffer, Histidine pH 6.0, pH initial 6.1, pH (24 h) 5.8, read-out: Solubility after 24 hours): 532 µg/mL (≈ 1530 µM)
- solubility at 48 h ([1]; pH 6, aqueous buffer, Histidine pH 6.0, pH initial 6.1, pH (48 h) 5.8, read-out: Solubility after 48 hours): 485 µg/mL (≈ 1390 µM)
- solubility at 24 h ([1]; pH 6.8, aqueous buffer, Potassium phosphate pH 6.8, pH initial 6.9, pH (24 h) 6.6, read-out: Solubility after 24 hours): 2370 µg/mL (≈ 6800 µM)
- solubility at 48 h ([1]; pH 6.8, aqueous buffer, Potassium phosphate pH 6.8, pH initial 6.9, pH (48 h) 6.5, read-out: Solubility after 48 hours): 2710 µg/mL (≈ 7770 µM)
- solubility at 24 h ([1]; pH 6.9, aqueous buffer, 0.03N NaOH, pH initial 12.3, pH (24 h) 6.9, read-out: Solubility after 24 hours): 10600 µg/mL (≈ 30300 µM)
- solubility at 48 h ([1]; pH 6.9, aqueous buffer, 0.03N NaOH, pH initial 12.3, pH (48 h) 6.9, read-out: Solubility after 48 hours): 10300 µg/mL (≈ 29400 µM)
- solubility at 48 h ([1]; pH 7, aqueous buffer, 0.1N NaOH, pH initial 12.8, pH (48 h) 7.0, read-out: Solubility after 48 hours): 33500 µg/mL (≈ 96100 µM)
- solubility at 24 h ([1]; pH 7, aqueous buffer, Sodium phosphate pH 7.0, pH initial 7.0, pH (24 h) 6.7, read-out: Solubility after 24 hours): 3520 µg/mL (≈ 10100 µM)
- solubility at 48 h ([1]; pH 7, aqueous buffer, Sodium phosphate pH 7.0, pH initial 7.0, pH (48 h) 6.6, read-out: Solubility after 48 hours): 3620 µg/mL (≈ 10400 µM)
- solubility at 24 h ([1]; pH 7.1, aqueous buffer, 0.1N NaOH, pH initial 12.8, pH (24 h) 7.1, read-out: Solubility after 24 hours): 31900 µg/mL (≈ 91500 µM)
- solubility at 48 h ([1]; pH 7.4, aqueous buffer, 0.3N NaOH, pH initial 13.2, pH (48 h) 7.4, read-out: Solubility after 48 hours): 93600 µg/mL (≈ 269000 µM)
- solubility at 24 h ([1]; pH 11.7, aqueous buffer, 0.3N NaOH, pH initial 13.2, pH (24 h) 11.7, read-out: Solubility after 24 hours): 87800 µg/mL (≈ 252000 µM)
- AUC∞ [2, 4]: 45 ng·h/mL
- Cmax [2, 4]: 36.4 ng/mL
- t1/2 [2, 4]: 12.1 h
- Tmax ([2]; 2 mg single dose, Fasted, oral solution, Group 5, N = 6, median): 0.500 h
- AUC∞ [2, 5]: 121 ng·h/mL
- Cmax [2, 5]: 72.9 ng/mL
- t1/2 [2, 5]: 14.2 h
- AUC∞ [2, 6]: 92.8 ng·h/mL
- Cmax [2, 6]: 45.7 ng/mL
- t1/2 [2, 6]: 12.7 h
- Tmax ([2]; 5 mg single dose, Fed, 1 × 5 mg tablet, Group 6, N = 6, median): 1.25 h
- Cmax ([2]; 5 mg/Fasted, immediate release, read-out: Cmax): 72.9 ng/mL
- Cmax [2, 7]: 384 ng/mL
- t1/2 [2, 7]: 10.9 h
- Tmax ([2]; 20 mg single dose, Fasted, 1 × 20 mg tablet, Group 1, N = 6, median): 0.500 h
- AUC∞ [2, 8]: 415 ng·h/mL
- Cmax [2, 8]: 181 ng/mL
- t1/2 [2, 8]: 13.8 h
- Tmax ([2]; 20 mg single dose, Fed, 1 × 20 mg tablet, Group 3, N = 6, median): 1.25 h
- AUC∞ [2, 9]: 1270 ng·h/mL
- t1/2 [2, 9]: 9.51 h
- Tmax ([2]; 40 mg single dose, Fasted, 2 × 20 mg tablet, Group 2, N = 6, median): 0.750 h
- AUC(0-t) ([2]; male, human, plasma, oral, 2 mg, 2 mg/Fasted, immediate release): 38.8 ng·h/mL
- AUC(0-t) ([2]; male, human, plasma, oral, 5 mg, 5 mg single dose, Fasted, 1 × 5 mg tablet, Group 4, N = 6, Geomean): 102 ng·h/mL
- Tmax ([2]; male, human, plasma, oral, 5 mg, 5 mg single dose, Fasted, 1 × 5 mg tablet, Group 4, N = 6, median, read-out: Tmax): 0.625 h
- AUC(0-t) ([2]; male, human, plasma, oral, 5 mg, 5 mg single dose, Fed, 1 × 5 mg tablet, Group 6, N = 6, Geomean): 75.2 ng·h/mL
- AUC(0-t) ([2]; male, human, plasma, oral, 5 mg, 5 mg/Fasted, immediate release): 102 ng·h/mL
- AUC(0-t) ([2]; male, human, plasma, oral, 20 mg, 20 mg single dose, Fasted, 1 × 20 mg tablet, Group 1, N = 6, Geomean): 463 ng·h/mL
- AUC(0-t) ([2]; male, human, plasma, oral, 20 mg, 20 mg single dose, Fed, 1 × 20 mg tablet, Group 3, N = 6, Geomean): 350 ng·h/mL
- AUC(0-t) ([2]; male, human, plasma, oral, 20 mg, 20 mg/Fasted, immediate release): 463 ng·h/mL
- AUC(0-t) ([2]; male, human, plasma, oral, 40 mg, 40 mg single dose, Fasted, 2 × 20 mg tablet, Group 2, N = 6, Geomean): 1070 ng·h/mL
- AUC(0-t) ([2]; male, human, plasma, oral, 40 mg, 40 mg/Fasted, immediate release): 1070 ng·h/mL
- AUC(0-inf) ([2]; male, human, plasma, oral, 20 mg single dose, Fasted, 1 × 20 mg tablet, Group 1, N = 6, Geomean): 540 ng·h/mL
- Cmax ([2]; male, human, plasma, oral, 40 mg single dose, Fasted, 2 × 20 mg tablet, Group 2, N = 6, Geomean, read-out: Cmax): 760 ng/mL
- AUC(0-t) ([2]; male, human, plasma, po, 2 mg, 2 mg single dose, Fasted, oral solution, Group 5, N = 6, Geomean): 38.8 ng·h/mL
- Tmax ([2]; male, human, plasma, po, 5 mg, immediate release tablet, oral, fasted, human, read-out: Tmax (called mean in b5, median)): 0.6 h
- Tmax ([2]; male, human, plasma, po, 5 mg, immediate release tablet, oral, fasted, human, read-out: time at which the peak plasma concentration is observed (Tmax), range): 0.25 to 1.5 h
- Cmax ([2]; male, human, plasma, po, 5 mg, read-out: geometric mean maximum plasma concentration (Cmax)): ~73 ng/mL
- Urine Urate Excretion 0-6 hrs/0-24 hrs [3]: 0.468
- Urine Urate Excretion UUE 0-6 hrs [3, 10]: 509 mg
- Urine Urate Excretion UUE 6-12 hrs [3, 10]: 231 mg
- Urine Urate Excretion UUE 12-24 hrs [3, 10]: 347 mg
